Results as given in patent US12692235B2, “Fused ring compound and application thereof” (WUHAN LL SCIENCE AND TECHNOLOGY DEVELOPMENT CO., LTD., priority 2019, dated 2026).

Assays:
[1] = tested on: Male Dunkin Hartley guinea pigs; experiment: Simple citric acid cough model; type: in vivo; details: guinea pig; for Average cough times: 17.5% citric acid
Method: Male Dunkin Hartley guinea pigs (300-350 g) were placed in an animal atomization box, and then the door of the atomization box was closed while the ultrasonic atomizer (Guangdong Yuehua) was turned on. 17.5% citric acid gas was introduced into the atomization box at a maximum atomization rate (about 2 mL/min) for 20 s, and coughs of the animals within 10 min were continuously observed from the time of the start of atomization. During the 10-min observation, coughs of the animals needed to be counted manually, and the number of coughs were judged according to cough postures of the guinea pigs, such as abdominal twitching, mouth opening, and head inclining downward abruptly. The number of coughs during the first 5 min and that during 10 min were recorded, and the cough latency of the guinea pigs, namely the time from the initiation of citric acid induction to the appearance of the 1st cough, was also recorded.

[2] = target: T1, hP2X4 (human purinergic P2X receptor subtype 4) (Homo sapiens, UniProt Q99571); details: P2X4 IC50 (nM), HEK293 cells stably expressing hP2X4; agonist BZ-ATP 2.5 μM; FLIPR calcium
T1 sequence (Q99571 1-404 isoform Q99571-2): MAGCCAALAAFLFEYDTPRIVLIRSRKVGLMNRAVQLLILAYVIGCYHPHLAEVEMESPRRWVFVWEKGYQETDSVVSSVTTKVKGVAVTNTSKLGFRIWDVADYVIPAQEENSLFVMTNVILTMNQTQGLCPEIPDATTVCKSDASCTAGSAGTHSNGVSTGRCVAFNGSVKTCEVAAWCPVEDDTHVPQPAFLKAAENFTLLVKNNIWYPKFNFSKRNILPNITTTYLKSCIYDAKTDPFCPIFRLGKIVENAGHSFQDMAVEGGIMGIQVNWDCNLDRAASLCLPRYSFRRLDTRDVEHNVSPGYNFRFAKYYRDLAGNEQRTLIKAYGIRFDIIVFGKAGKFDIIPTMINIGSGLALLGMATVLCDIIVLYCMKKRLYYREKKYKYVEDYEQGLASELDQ
Method: Cells at 400,000 cells/mL were seeded into a 384-well plate (10,000 cells/well) 18-24 h prior to the FLIPR experiment and then incubated overnight in a cell incubator. […] Each well was added with 20 μL of 0.5×Calcium 6 fluorescent dye (Molecular Devices, R8190) and then the cells were subjected to dye-loading incubation at 37° C. for 1.5 h. Each well was added with 10 μL of respective test compound (dissolved in DMSO at a concentration of 10 mM and serially diluted with buffer) or vehicle and the mixture was equilibrated for 30 min at room temperature.

[3] = 60 mg/kg group, before administration
[4] = citric acid, 20 mg/kg and 60 mg/kg, dose-dependent, vs vehicle group or before administration

Compound | IC50 [2] [nM] | other results
COc1nccc2c(S(N)(=O)=O)cc(NC(=O)Cc3ccccc3Cl)cc12 [Compound 1, 2-(2-chlorophenyl)-N-(1-methoxy-5-sulfamoylisoquinolin-7-yl)acetamide] | < 10 | Average cough times ([1]; 20 mg/kg group, before administration): 19.00; Average cough times ([1]; 20 mg/kg, after administration): 11.22; Average cough times [1, 3]: 19.40; Average cough times ([1]; 60 mg/kg, after administration): 10.50; Average cough times ([1]; 100 mg/kg group, before administration): 19.90; Average cough times ([1]; 100 mg/kg, after administration): 8.60; Cough inhibition rate Vs basic value (%) ([1]; citric acid, 20 mg/kg): 40.94%; Cough inhibition rate Vs vehicle (%) ([1]; citric acid, 20 mg/kg): 38.41%; cough latency [1, 4]: prolong the cough latency; number of coughs [1, 4]: reduce the number of coughs; Cough inhibition rate Vs basic value (%) ([1]; citric acid, 60 mg/kg): 45.88%; Cough inhibition rate Vs vehicle (%) ([1]; citric acid, 60 mg/kg): 42.38%; drug effect compared with dextromethorphan at the same dosage ([1]; citric acid, 60 mg/kg): no significant difference in the drug effect compared with the positive compound dextromethorphan; Cough inhibition rate Vs basic value (%) ([1]; citric acid, 100 mg/kg): 56.78%; Cough inhibition rate Vs vehicle (%) ([1]; citric acid, 100 mg/kg): 52.80%
NS(=O)(=O)c1cc(NC(=O)Cc2ccccc2Cl)cc2c1CCN(c1ccccc1)C2 [Compound 104, 2-(2-chlorophenyl)-N-(2-phenyl-5-sulfamoyl-1,2,3,4-tetrahydroisoquinolin-7-yl)acetamide] | 50 to 200 | 
NS(=O)(=O)c1cc(NC(=O)Cc2ccccc2Cl)cc2c1CCN(C(=O)Oc1ccccc1)C2 [Compound 105, phenyl 7-(2-(2-chlorophenyl)acetamido)-5-sulfamoyl-3,4-dihydroisoquinoline-2(1H)-carboxylate] | 50 to 200 | 
NS(=O)(=O)c1cc(NC(=O)Cc2ccccc2Cl)cc2c1CCN(C(=O)c1ccccc1)C2 [Compound 106, N-(2-benzoyl-5-sulfamoyl-1,2,3,4-tetrahydroisoquinolin-7-yl)-2-(2-chlorophenyl)acetamide] | 10 to 50 | 
NS(=O)(=O)c1cc(NC(=O)Cc2ccccc2Cl)cc2c1CCN(C(=O)C1CCC1)C2 [Compound 107] | 10 to 50 | 
NS(=O)(=O)c1cc(NC(=O)Cc2ccccc2Cl)cc2c1CCN(C(=O)C1CC1)C2 [Compound 108] | < 10 | 
CCN1CCc2c(cc(NC(=O)Cc3ccccc3Cl)cc2S(N)(=O)=O)C1 [Compound 109, 2-(2-chlorophenyl)-N-(2-ethyl-5-sulfamoyl-1,2,3,4-tetrahydroisoquinolin-7-yl)acetamide] | 200 to 5000 | 
NS(=O)(=O)c1cc(NC(=O)Cc2ccccc2Cl)cc2c1CCN(Cc1ccccc1)C2 [Compound 110, N-(2-benzyl-5-sulfamoyl-1,2,3,4-tetrahydroisoquinolin-7-yl)-2-(2-chlorophenyl)acetamide] | 200 to 5000 | 
NS(=O)(=O)c1cc(NC(=O)Cc2ccccc2Cl)cc2c1CCN(CC1CC1)C2 [Compound 111] | 200 to 5000 | 
CN1CCc2c(cc(NC(=O)Cc3ccccc3Cl)cc2S(N)(=O)=O)C1 [Compound 112, 2-(2-chlorophenyl)-N-(2-methyl-5-sulfamoyl-1,2,3,4-tetrahydroisoquinolin-7-yl)acetamide] | 10 to 50 | 
CC(C)N1CCc2c(cc(NC(=O)Cc3ccccc3Cl)cc2S(N)(=O)=O)C1 [Compound 113, 2-(2-chlorophenyl)-N-(2-isopropyl-5-sulfamoyl-1,2,3,4-tetrahydroisoquinolin-7-yl)acetamide] | 50 to 200 | 
NS(=O)(=O)c1cc(NC(=O)Cc2ccccc2Cl)cc2c1CCN(C(=O)C(F)(F)F)C2 [Compound 114, 2-(2-chlorophenyl)-N-(5-sulfamoyl-2-(2,2,2-trifluoroacetyl)-1,2,3,4-tetrahydroisoquinolin-7-yl) acetamide] | 10 to 50 | 
NS(=O)(=O)c1cc(NC(=O)Cc2ccccc2Cl)cc2c1CCN(C(Cl)Cl)C2 [Compound 115, 2-(2-chlorophenyl)-N-(2-(dichloromethyl)-sulfamoyl-1,2,3,4-tetrahydroisoquinolin-7-yl)acetamide] | 200 to 5000 | 
NS(=O)(=O)c1cc(NC(=O)Cc2ccccc2Cl)cc2c1CCN(c1ccc(Cl)cn1)C2 [Compound 116, 2-(2-chlorophenyl)-N-(2-(5-chloropyridin-2-yl)-5-sulfamoyl-1,2,3,4-tetrahydroisoquinolin-7-yl)acetamide] | 50 to 200 | 
NS(=O)(=O)c1cc(NC(=O)Cc2ccccc2Cl)cc2c1CCN(c1ccc(C(F)(F)F)cn1)C2 [Compound 117, 2-(2-chlorophenyl)-N-(5-sulfamoyl-2-(5-(trifluoromethyl)pyridin-2-yl)-1,2,3,4-tetrahydroisoquinolin-7-yl)acetamide] | 10 to 50 | 
NS(=O)(=O)c1cc(NC(=O)Cc2ccccc2Cl)cc2c1CCN(c1cc(Cl)c(F)cn1)C2 [Compound 118, N-(2-(4-chloro-5-fluoropyridin-2-yl)-5-sulfamoyl-1,2,3,4-tetrahydroisoquinolin-7-yl)-2-(2-chlorophenyl)acetamide] | 50 to 200 | 
C=CC(F)(F)N1CCc2c(cc(NC(=O)Cc3ccccc3Cl)cc2S(N)(=O)=O)C1 [Compound 119, 2-(2-chlorophenyl)-N-(2-(1,1-difluoroallyl)-5-sulfamoyl-1,2,3,4-tetrahydroisoquinolin-7-yl)acetamide] | 200 to 5000 | 
NS(=O)(=O)c1cc(NC(=O)Cc2ccccc2Cl)cc2c1CCN(c1ccc(F)cc1)C2 [Compound 120, 2-(2-chlorophenyl)-N-(2-(4-fluorophenyl)-5-sulfamoyl-1,2,3,4-tetrahydroisoquinolin-7-yl)acetamide] | 50 to 200 | 
Cc1ccc(N2CCc3c(cc(NC(=O)Cc4ccccc4Cl)cc3S(N)(=O)=O)C2)nc1 [Compound 121, 2-(2-chlorophenyl)-N-(2-(5-methylpyridin-2-yl)-5-sulfamoyl-1,2,3,4-tetrahydroisoquinoline-7-yl)acetamide] | 50 to 200 | 
NS(=O)(=O)c1cc(NC(=O)Cc2ccc(F)cc2Cl)cc2c1CCN(c1ccc(F)cn1)C2 [Compound 122] | 200 to 5000 | 
NS(=O)(=O)c1cc(NC(=O)Cc2ccccc2Cl)cc2c1CCN(C1COC1)C2 [Compound 123, 2-(2-chlorophenyl)-N-(2-(oxetan-3-yl)-5-sulfamoyl-1,2,3,4-tetrahydroisoquinolin-7-yl)acetamide] | 200 to 5000 | 
COc1ccc2c(c1)[C@]13CCCC[C@@H]1[C@H](C2)N(C)CC3 [Dextromethorphan, dextromethorphan, reference compound] |  | Average cough times [1, 3]: 19.70; Average cough times ([1]; 60 mg/kg, after administration): 11.20; Cough inhibition rate Vs basic value (%) ([1]; citric acid, 60 mg/kg): 43.15%; Cough inhibition rate Vs vehicle (%) ([1]; citric acid, 60 mg/kg): 38.54%
COc1ccc(Nc2ccc3c(S(N)(=O)=O)cc(NC(=O)Cc4ccccc4Cl)cc3n2)cc1 [Trifluoroacetate of compound 71, 2-(2-chlorophenyl)-N-(2-((4-methoxyphenyl)amino)-5-sulfamoylquinolin-7-yl)acetamide] | 200 to 5000 | 
